Experimental data published in US20080095713A1, “Method of Tumour Imaging” (priority 2004, published 2008).
Blank lines part the entries; values can stand above or below the compound they belong to.

Columns and labels:
[1] = system: R3230AC rat mammary adenocarcinoma; test: In vivo ^13C-MR tumour imaging using hyperpolarised ^13C-pyruvate
Experimental: R3230AC is a rat mammary adenocarcinoma that can be maintained in female Fischer 344 rats. To establish the animal tumour model, a frozen vial of R32030 cells containing RPMI 1640, 10% FBS and 10% DMSO was rapidly thawed in 37° C. Thereafter, the cell solution was transferred to FBS and increasing volumes of RPMI 1640 were added. Finally, the cell suspension was transferred to a 25 cm^2 growth flask and put into an incubator at 37° C., 5% CO2. Growth media were changed every other day. At the day of rat infection, removal of cells was carried out either by mechanical force or by means of trypsin. Cells were washed using phosphate buffer lacking calcium and magnesium. Trypsin (0.05% trypsin in 0.02% EDTA) was added for 2-5 min. Then, 5 ml FBS was added and the cells were transferred into a beaker containing RPMI 1640 with FCS and antibiotics (100 IU/ml penicillin, 100 IU/ml streptomycin and 2.5 μg/ml amphotericin B). The cell solution was centrifugated and the cell pellet was resuspended in 20 ml RPMI with FBS and antibiotics, centrifugation and resuspension was repeated. The cells were then aliquoted to vials containing 4×10^6 cells/ml RPMI 1640. To obtain donor tumours, female Fischer 344 rats (Charles River, 180-200 g) were anaesthetised and 0.3 ml of the cell suspension was subcutaneously injected in the inguinal region on both sides. 15 and 22 days later, pieces of tumour were prepared as described in F. A. Burgener et al., Invest Radiol 22/6 (1987), 472-478; S. Saini et al., J. Magn. Reson. 129/1 (1997), 35-43). Two incisions were made on the ventral abdomen of recipient female Fischer rats. A tumour piece was inserted into each pocket and the incisions were closed. Rats were brought to imaging 12-14 days after tumour engrafting.
Weighed rats were anaesthetised using isoflurane (2-3%) and kept on a heated table to ensure a body temperature of about 37° C. A catheter was introduced into the tail vein and into the arteria carotis communis sinistra. The rats were transported to the MR machine and placed on a home-built pad that was heated to approx. 37° C. by means of circulating FC-104 Fluorinert. This liquid will not give rise to background signals in ^1H- and ^13C-MR imaging. Anaesthesia was continued by means of 1-2% isoflurane delivered via a long tube to an open-breathing system at a rate of 0.4 L/min. […]
Based on the proton frequency found by the MR system the MR frequency for ^13C1-alanine was calculated according to the following equation: […]
The frequency calculated positioned the MR signal arising from ^13C1-alanine on resonance with ^13C1-lactate on the left and ^13C1-pyruvate resonating on the right of ^13C1-alanine. […]

[2] = Properties of the injected ^13C1-pyruvate composition at time of injection; format: physicochemical
Description: The frequency calculated positioned the MR signal arising from ^13C1-alanine on resonance with ^13C1-lactate on the left and ^13C1-pyruvate resonating on the right of ^13C1-alanine. An unlocalised MR spectroscopy sequence was run to ensure that the 13C-MR coil and the system MR frequency had been set up correctly. The ^13C-image location was positioned to cover the tumour (slice thickness 10 mm, in plane pixel size 5×5 mm^2). In the reconstruction phase, the image data was zero-filled to result in 2.5×2.5×10 mm^3 resolution. ^13C1-pyruvate in TRIS buffer (90 mM) was injected in a dose of 10 ml/kg during a period of 12 s with a minimum volume of 2 ml into the tail vein and 30 s after the start of the injection (i.e. 18 s after finishing the injection), the chemical shift ^13C-MR sequence was started.
In total 30 different tumours were imaged in 18 rats. 1 rat failed and 3 tumours failed the biological criteria described in the preceding paragraph 5.5. […] The average polarisation of ^13C1-pyruvate at the time of injection was 21.2±2.9% (mean ±SD) and the pH was 8.08±0.14 (mean±SD).

[3] = DNP polarisation, solid-state ^13C-NMR (enhanced vs thermal equilibrium signal); format: physicochemical; details: 20 mM Tris(8-carboxy-2,2,6,6-tetra(hydroxyethoxy)methyl-benzo[1,2-d:4,5-d′]bis(1,3)dithiole-4-yl)methyl sodium salt, 1.2 K, 3.35 T, 93.950 GHz
Experimental: A 20 mM solution was prepared by dissolving Tris(8-carboxy-2,2,6,6-tetra(hydroxyethoxy)methyl-benzo [1,2-d:4,5-d′]-bis-(1,3)-dithiole-4-yl)methyl sodium salt in ^13C1-pyruvic acid (83.1 mg). The sample was mixed to homogeneity, placed in a sample cup and inserted in the DNP polariser. The sample was polarised under DNP conditions at 1.2 K in a 3.35 T magnetic field under irradiation with microwave (93.950 GHz). The ^13C-NMR signal from the sample was acquired using a Varian Inova-200 NMR spectrometer. The DNP enhancement was calculated from a measurement of the thermal equilibrium ^13C-NMR signal and the enhanced NMR signal. 16% ^13C polarisation was obtained.

[4] = T1 relaxation of ^13C-pyruvate in human full blood; format: physicochemical; details: human full blood at 37° C.
Description: The amount of alanine, bicarbonate and lactate is dependent on the metabolic status of the tissue under investigation.

[5] = DNP polarisation, dissolution and liquid-state ^13C-NMR assessment of polarisation; format: physicochemical; details: 1.2 K, 3.35 T
Experimental: A 20 mM solution was prepared by dissolving 5.0 mg of the radical of Example 1 in ^13C1-pyruvic acid (164 μl). The sample was mixed to homogeneity and an aliquot of the solution (41 mg) was placed in a sample cup and inserted in the DNP polariser.
The sample was polarised under DNP conditions at 1.2 K in a 3.35 T magnetic field under irradiation with microwave (93.950 GHz). After 2 hours the polarisation was stopped and the sample was dissolved using a dissolution device according to WO-A-02/37132 in an aqueous solution of sodium hydroxide and tris(hydroxymethyl)-aminomethane (TRIS) to provide a neutral solution of hyperpolarized sodium^13C1-pyruvate. The dissolved sample was rapidly analysed with ^13C-NMR to assess the polarisation and a 19.0 % ^13C polarisation was obtained.
A 15 mM solution was prepared by dissolving the radical of Example 1 (209.1 mg) in a mixture of ^13C1-pyruvic acid (553 mg) and unlabelled pyruvic acid (10.505 g). […]
The sample was polarised under DNP conditions at 1.2 K in a 3.35 T magnetic field under irradiation with microwave (93.950 GHz). […] The filtered solution was rapidly analysed with ^13C-NMR to assess the polarisation, 16.5% ^13C polarisation was obtained. The residual radical concentration was subsequently analysed with a UV spectrophotometer at 469 nm and was determined to be below the detection limit of 0.1 μM.

[6] = rat, i.v. tail vein 10 ml/kg, imaging 30 s after start of injection

average polarisation at the time of injection ([2]; mean ±SD, ^13C1-pyruvate in TRIS buffer (90 mM)): 21.2±2.9%
pH ([2]; mean±SD, injected composition): 8.08±0.14
SMILES: CC(=O)[13C](=O)O [^13C1-pyruvate]
overall rate of success ([1]; discrimination of tumour and healthy tissue, 26 out of 26 tumours): 100%
metabolic contrast in the tumour area, lactate signal [1, 6]: 24 out of 26
metabolic contrast in the tumour area, lactate signal, alanine corrected [1, 6]: 26 out of 26
metabolic contrast in the tumour area, lactate signal, pyruvate corrected [1, 6]: 26 out of 26

^13C polarisation [3]: 16%
SMILES: CC(=O)[13C](=O)O [^13C1-pyruvic acid]

T1 relaxation [4]: about 42 s
SMILES: CC(=O)[13C](=O)O [^13C-pyruvate]

^13C polarisation ([5]; 15 mM radical of Example 1 in ^13C1-pyruvic acid/unlabelled pyruvic acid, 4 hours, dissolved NaOH/TRIS, 0.5 M pyruvate, radical removed on C18 column): 16.5%
^13C polarisation ([5]; 20 mM radical of Example 1 in ^13C1-pyruvic acid, 93.950 GHz, 2 hours, dissolved in NaOH/TRIS, liquid ^13C-NMR): 19.0%
SMILES: CC(=O)[13C](=O)[O-].[Na+] [sodium ^13C1-pyruvate]
